Here are results for 10 compounds from patent publication US20210346388A1, “CDC7-Inhibiting Purine Derivatives and their use for the Treatment of Neurological Conditions” (CONSEJO SUPERIOR DE INVESTIGACIONES CIENTIFICAS (CSIC), priority 2018, published 2021).

For series [1], the target named is recombinant human Cdc7/DBF4 (Homo sapiens, UniProt O00311). As to the kind of experiment: LanthaScreen Eu Kinase Inhibition Assay (Cdc7 inhibition). It is filed as binding. The settings on record: recombinant human Cdc7/DBF4 0.5 nM, 60 min room temperature, 1% DMSO; read-out: Cdc7 CI50. An excerpt: The LanthaScreen Eu Kinase Inhibition Assay uses an Alexa Fluor™ marker which binds to a kinase and is detected by the addition of an Eu-labelled antibody. The binding of the marker and the antibody to the kinase results in a high degree of FRET, whereas the displacement of the marker by an inhibitor results in a loss of FRET. Unlike many other kinase activity assays, this is a simple mix and read assay, without stages of development. This assay method has been developed by “Life Technologies” and they identify competitive ATP kinase inhibitors, making them suitable for the detection of any compound which binds to the ATP site.
Chain of recombinant human Cdc7/DBF4 (O00311 whole entry): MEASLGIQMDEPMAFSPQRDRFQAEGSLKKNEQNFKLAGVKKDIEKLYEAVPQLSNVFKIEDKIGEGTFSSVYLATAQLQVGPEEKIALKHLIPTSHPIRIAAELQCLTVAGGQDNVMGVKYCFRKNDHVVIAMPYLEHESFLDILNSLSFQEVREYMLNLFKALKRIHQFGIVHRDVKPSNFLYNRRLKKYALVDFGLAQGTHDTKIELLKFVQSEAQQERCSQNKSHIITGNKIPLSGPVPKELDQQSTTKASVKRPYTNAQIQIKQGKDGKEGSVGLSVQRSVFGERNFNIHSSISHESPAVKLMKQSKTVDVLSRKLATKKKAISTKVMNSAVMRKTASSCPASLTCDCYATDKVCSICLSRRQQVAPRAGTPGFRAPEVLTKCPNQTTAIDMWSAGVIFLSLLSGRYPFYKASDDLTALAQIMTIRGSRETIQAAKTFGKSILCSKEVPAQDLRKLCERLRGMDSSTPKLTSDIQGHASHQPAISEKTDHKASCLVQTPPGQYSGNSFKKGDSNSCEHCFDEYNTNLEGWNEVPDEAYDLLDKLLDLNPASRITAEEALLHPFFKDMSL
Chain of recombinant human Cdc7/DBF4 (Q9UBU7 whole entry partner): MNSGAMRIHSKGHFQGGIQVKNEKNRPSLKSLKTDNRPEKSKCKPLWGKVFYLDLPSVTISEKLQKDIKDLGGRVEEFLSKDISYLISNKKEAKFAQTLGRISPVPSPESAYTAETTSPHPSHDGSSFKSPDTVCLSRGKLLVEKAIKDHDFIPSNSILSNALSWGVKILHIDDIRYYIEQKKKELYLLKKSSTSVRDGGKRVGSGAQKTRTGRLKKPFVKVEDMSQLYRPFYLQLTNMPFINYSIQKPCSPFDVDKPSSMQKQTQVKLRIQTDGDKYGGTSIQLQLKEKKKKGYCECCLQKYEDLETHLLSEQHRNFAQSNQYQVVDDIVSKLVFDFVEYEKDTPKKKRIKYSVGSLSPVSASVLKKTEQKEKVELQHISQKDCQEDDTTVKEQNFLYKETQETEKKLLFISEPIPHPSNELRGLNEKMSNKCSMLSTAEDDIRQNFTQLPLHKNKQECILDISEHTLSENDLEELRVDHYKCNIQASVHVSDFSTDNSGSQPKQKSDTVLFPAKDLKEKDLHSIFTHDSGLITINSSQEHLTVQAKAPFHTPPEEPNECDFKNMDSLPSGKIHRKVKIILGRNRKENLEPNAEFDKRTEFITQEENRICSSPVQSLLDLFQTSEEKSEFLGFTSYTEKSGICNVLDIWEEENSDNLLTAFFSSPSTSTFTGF
The compounds are evaluated in 1% DMSO (final) in the well. A mixture of recombinant human Cdc7/DBF4 (0.5 nM), Eu-anti-GST antibody (2 nM) and Alexa Fluor marker (1 nM) in a buffer of 50 mM HEPES pH 7.5, 0.01% BRIJ-35, 10 mM MgCl2, 1 mM EGTA was used. In white plates with […], with a low volume, and coded (Greiner cat. #784207), 160 nL (100×compound in 100% DMSO), 3.84 μl (buffer with Cdc7/DBF4), […] (antibody), 4.0 μl (marker) are added. It is stirred for 30 s and incubated at room temperature for 60 min. Next, the fluorescence is measured in the plate reader and the data is analysed (Table 1).
In general terms: Time-resolved FRET reads energy transfer from a long-lived donor to a nearby acceptor.

A short description of series [2]: PAMPA-BBB permeability (porcine brain lipid artificial membrane). Format: in vitro ADME. More on the design: key to PAMPA prediction of the penetration into the central nervous system (CNS): permeable to the BBB (CNS+) if it has a permeability >4.48×10^−6 cm·s^−1; CNS+/−: located in the zone of uncertainty. To be noted: for Papp at 2.5 h: pig, PAMPA, porcine brain lipid, PBS pH 7.4/EtOH 70:30, 2 h 30 min at 25° C., mean ± SD, read-out: Pe (permeability, PAMPA-BBB); for PAMPA prediction of the penetration into the central nervous system (CNS): prediction from Pe, PAMPA-BBB. An excerpt:
An essential requirement that must be met by drugs for the treatment of neurodegenerative diseases is the ability to cross the blood-brain barrier (BBB) since, otherwise, they could not act on the target of interest. Therefore, for the compounds that are non-permeable or located in the zone of uncertainty, it could be necessary for them to be suitably conveyed in a pharmaceutical formulation by means of methods known by those skilled in the art, such as by means of encapsulation. This ability can be predicted in vitro by using a method known by the acronym PAMPA (Parallel Artificial Membrane Permeability Assay) described by Di et al. (Di, L.; Kerns, E. H.; Fan, K.; McConnell, O. J.; Carter, G. T. Eur. J. Med. Chem., 2003, 38 (3), 223-232) and that has subsequently been fine-tuned in our research group. Said method enables the effective permeability through artificial membranes to be predicted by means of a passive diffusion process.
First, it is necessary to validate the method, for which reason 10 commercial compounds, whose ability to penetrate the central nervous system (CNS) is known, are used and will be specified below, obtaining in this case good linear correlation between the experimental permeability values (Pe) and those described (FIG. 1). This correlation line obtained following the pattern described in the literature makes it possible to establish the limits for predicting whether a compound can cross the blood-brain barrier or not. Thus, a compound is considered to be permeable to the BBB (CNS+) if it has a permeability >4.48×10^−6 cm·s^−1.
For the procedure, between 3-5 mg of caffeine, desipramine, enoxacin, hydrocortisone, ofloxacin, piroxicam and testosterone, 12 mg of promazine and 25 mg of atenolol and verapamil were taken and dissolved in EtOH (1000 μl). 100 μl of these solutions were taken and EtOH (1400 μl) and phosphate buffer (PBS) pH=7.4 (3500 μl) were added in order to reach a final EtOH concentration of 30% v/v in solution. Lastly, the solutions were filtered.
Moreover, a solution of PBS/EtOH (70:30) was added to each well of the acceptor plate (180 μl). The donor plate was impregnated with a solution of porcine brain lipid (4 μl) dissolved in dodecane (20 mg·ml^−1). After 5 min, a solution of each compound was added on this plate (180 μl).
Of the compounds evaluated, between 1-2 mg were taken and dissolved in EtOH (1500 μl) and phosphate buffer (PBS) pH=7.4 (3500 μl), filtered and added to the donor plate. With these solutions, the wavelengths at which they absorb the compounds are determined and the initial absorbance levels at these wavelengths are measured by using a UV absorbance reader. Each sample was analysed at two to five wavelengths, in three wells and in two independent experiments.
Next, the donor plate was deposited on the acceptor plate forming a sort of “sandwich” and they were left to incubate for 2 h and 30 min at 25° C. Thus, the compounds will pass from the donor plate to the acceptor plate through the porcine brain lipid by means of passive diffusion. After that time, the donor plate is carefully removed and the final concentration and absorbance of both the commercial and the synthesised compounds are determined. The results obtained are expressed as the mean of the measurements [standard deviation (SD)] of the different experiments performed and are recorded in Table 2.

The subject of series [3] is SH-SY5Y human neuroblastoma cell line. The series is described as follows: cells. Format: cell-based. The protocol:
The data represents the mean of four different experiments ±SEM (*p<0.05).
The SH-SY5Y human neuroblastoma cell line was grown at 37° C. with 5% CO2 in DMEN (Dulbecco's Modified Eagle Medium) enriched with L-glutamine (2 mM), 1% non-essential amino acids, 1% Penicillin/Streptomycin and 10% foetal bovine serum. In the state of semi-confluence, the cells were treated with the Cdc7 inhibitor (compound 3) at different concentrations for 1.30 hours post-addition of the causative agent of the TDP-43 phosphorylation; ethacrynic acid (20 μM) (Sigma). At 24 hours, the cellular viability was evaluated with MTT ([3-(4,5-dimethylthiazol-2-yl)-2,5-diphenyltetrazolium bromide) following a described procedure (Denizot F, Lang R. J Immunol Methods. 1987; 89:271-7).

Consider `Clc1ccc(CCSc2ncnc3[nH]cnc23)cc1` [compound 6, 6-((4-chlorophenethyl)thio)-9H-purine], for which the IC50 in series [1] came out at 142 nM. Further, in series [2], the Papp at 2.5 h was 25.1 ± 1.3 ×10⁻⁶ cm/s and the “PAMPA prediction of the penetration into the central nervous system (CNS)” value (shortened to “PAMPA prediction”) was “CNS+ (permeable to the BBB (CNS+) if it has a permeability >4.48×10^−6 cm·s^−1)”.

`COc1cccc(C(=O)CSc2ncnc3[nH]cnc23)c1` [compound 4, 1-(3-methoxyphenyl)-2-((9H-purin-6-yl)thio)-ethan-1-one]: in series [1], the IC50 came out at 1710 nM. For the same compound, in series [2], the Papp at 2.5 h was 2.4 ± 1 ×10⁻⁶ cm/s and the “PAMPA prediction” value is “CNS+/−”.

Regarding `COc1ccc(C(=O)CSc2ncnc3[nH]cnc23)cc1` [compound 2, 1-(4-methoxyphenyl)-2-((9H-purin-6-yl)thio)-ethan-1-one], in series [1], the IC50 is 1080 nM. For the same compound, in series [2], the Papp at 2.5 h was 2.5 ± 0.1 ×10⁻⁶ cm/s and the “PAMPA prediction” value is given as “CNS+/−”.

As for `O=C(CSc1ncnc2[nH]cnc12)c1ccc2ccccc2c1` [compound 3, 1-(naphthalen-2-yl)-2-((9H-purin-6-yl)thio)-ethan-1-one], the “Reversal of cell death caused by ethacrynic acid (neuroprotective effect, MTT viability)” value in series [3] (SH-SY5Y cells, ethacrynic acid 20 μM, inhibitor at 10 μM, viability at 24 hours) is “this death is reversed”. For the same compound, the IC50 in series [1] worked out at 698 nM. In series [2], the Papp at 2.5 h was 9.6 ± 0.8 ×10⁻⁶ cm/s and the “PAMPA prediction” value is “CNS+ (permeable to the BBB (CNS+) if it has a permeability >4.48×10^−6 cm·s^−1)”.

As for `c1ccc(CSc2ncnc3[nH]ccc23)cc1` [compound 10, 4-(benzylthio)-7H-pyrrolo[2,3-d]pyrimidine], the IC50 in series [1] came out at 234 nM. Moreover, in series [2], the Papp at 2.5 h was 4.5 ± 1.2 ×10⁻⁶ cm/s and the “PAMPA prediction” value is “CNS+ (permeable to the BBB (CNS+) if it has a permeability >4.48×10^−6 cm·s^−1)”.

As usually defined, the mortality is the percentage killed. On to `C=C(CC)C(=O)c1ccc(OCC(=O)O)c(Cl)c1Cl` [ethacrynic acid, reference compound], for which the mortality at 20 µM in series [3] (Homo sapiens, SH-SY5Y, 24 h, read-out: Cell mortality due to excess TDP-43 phosphorylation) is 40%.

Turning to `Fc1ccc(CCSc2ncnc3[nH]cnc23)cc1` [compound 9, 6-((4-fluorophenethyl)thio)-9H-purine], the IC50 in series [1] came out at 397 nM. For the same compound, in series [2], the Papp at 2.5 h was 10.2 ± 0.5 ×10⁻⁶ cm/s and the “PAMPA prediction” value was “CNS+ (permeable to the BBB (CNS+) if it has a permeability >4.48×10^−6 cm·s^−1)”.

Consider `Clc1cccc(CCSc2ncnc3[nH]cnc23)c1` [compound 7, 6-((3-chlorophenethyl)thio)-9H-purine], for which, in series [1], the IC50 worked out at 305 nM. Also, in series [2], the Papp at 2.5 h was 10.6 ± 0.5 ×10⁻⁶ cm/s and the “PAMPA prediction” value was “CNS+ (permeable to the BBB (CNS+) if it has a permeability >4.48×10^−6 cm·s^−1)”.

In the case of `Clc1ccccc1CCSc1ncnc2[nH]cnc12` [compound 8, 6-((2-chlorophenethyl)thio)-9H-purine], in series [2], the Papp at 2.5 h is 11.6 ± 0.5 ×10⁻⁶ cm/s and the “PAMPA prediction” value was “CNS+ (permeable to the BBB (CNS+) if it has a permeability >4.48×10^−6 cm·s^−1)”.

Take `O=C(CSc1ncnc2[nH]cnc12)c1ccc(I)cc1` [compound 5, 1-(4-iodophenyl)-2-((9H-purin-6-yl)thio)-ethan-1-one]: the IC50 in series [1] was 380 nM. For the same compound, in series [2], the Papp at 2.5 h is 10.5 ± 1.2 ×10⁻⁶ cm/s and the “PAMPA prediction” value was “CNS+ (permeable to the BBB (CNS+) if it has a permeability >4.48×10^−6 cm·s^−1)”.
